Results reported in patent publication US20140343001A1, “INDOLE DERIVATIVES INHIBITORS OF ENZYME LACTATE DEHYDROGENASE (LDH)” (Universitá di Pisa, priority 2011, published 2014).
pIC50, pKi: −log10 of the molar value.

Experiments:
A549 cells = assay: Inhibition of tumor cell growth method (b), CellTiter-Glo; format: cell-based; conditions: Homo sapiens, A549, 72 h
From the text: (§1) CellTiter-Glo® Luminescent Cell Viability Assay (Promega) is a homogeneous method of determining the number of viable cells in culture based on quantitation of the present ATP, which indicates the presence of metabolically active cells. The homogeneous assay procedure involves addition of a single reagent (CellTiter-Glo® Reagent) directly to the cells, which leads to cell lysis and generation of a luminescent signal proportional to the amount of the ATP and the number of cells present in culture. The assay relies on the properties of a proprietary thermostable luciferase (Ultra-Glo® recombinant luciferase), which generates a luminescent signal.
(§2) After 72 h, a volume of CellTiter-Glo® Reagent equal to the volume of cell culture medium was added. The content was mixed for 2 min to induce cell lysis. The luminescence was recorded after further 10 min at RT in order to obtain a stable luminescent signal.
(§3) The IC50 was calculated using GraphPad Software.

H1975 = assay: as above; format: cell-based; conditions: Homo sapiens, NCI-H1975, H1975, 72 h
From the text: as §1, §2, §3

hLDH5 (LDH-A) = molecular target: T1, hLDH5 (LDH-A) (Homo sapiens, UniProt P00338); assay: Enzyme inhibition of human lactate dehydrogenase isoform 5; format: biochemical; conditions: ranges of values, pH 7.4; for pKi: 37° C., read-out: inhibitory activity against hLDH5 (Ki)
T1 construct: purchased LEEBIO (USA)
Procedure: The compounds described in the examples were evaluated in enzymatic assays to assess its inhibitory properties against two human isoforms of lactate dehydrogenase, hLDH5 containing solely the subunit LDH-A (LEEBIO—USA), and the hLDH1 containing only the LDH subunits-B (Sigma Aldrich, USA), in order to verify the selectivity of these compounds.
(for Ki measurements). Such assays were conducted in cells containing 200 μL of a solution comprising the reagents dissolved in phosphate buffer (KH2PO4 and K2HPO4) at pH 7.4.
IC50 values were calculated as described below. […] Seven different concentrations (in duplicate for each concentration) of compound were used to generate a concentration-response curve. […] Compound solutions were dispensed in 96-well plates (8 μL), then substrate and cofactor dissolved in buffer (152 μl) and enzyme solution (40 μl) were finally added. Dilution of the enzyme stock solution was made to allow a 10% consumption of the cofactor after 15 min. The eventual background fluorescence of the tested compounds or quenching of the NADH fluorescence by the tested compounds was subtracted. In addition to the compound test wells, each plate contained maximum and minimum controls. Assay plates were incubated at room temperature for 15 min and the final measurements were performed using Victor X3 Microplates reader (PerkinElmer®) at a fluorescence emission wavelength of 460 nm (excitation at 340 nm). IC50 were generated using the curve-fitting tool of GraphPad Prism].
The resulting data of enzymatic kinetic (the constants of Michaelis-Menten) were determined by analysis of non-linear regression.

HeLa cells = assay: Determination of cellular production of lactate (GC/MS); format: cell-based; conditions: 8 hours, concentrations from 50 to 200 μM, comparable or superior to 2-DeoxGlu at 10 mM

Row | SMILES | pIC50 (A549 cells) | pIC50 (H1975) | pKi (hLDH5 (LDH-A)) | reduction of cellular production of lactate (HeLa cells) | pIC50 (hLDH5 (LDH-A); room temperature, read-out: inhibitory activity against hLDH5 (IC50))
1 | COC(=O)c1cc2c(C(F)(F)F)cc(-c3cccc(OC(F)(F)F)c3)cc2n1O [Example 19, methyl 1-hydroxy-4-(trifluoromethyl)-6-(3-(trifluoromethoxy)phenyl)-1H-indole-2-carboxylate] | ≥ 4.51 | ≥ 4.51 | 5.00 to 6.00 |  | 
2 | O=C(O)c1cc2c(C(F)(F)F)cc(-c3cccc(OC(F)(F)F)c3)cc2n1O [Example 25, 1-hydroxy-4-(trifluoromethyl)-6-(3-(trifluoromethoxy)phenyl)-1H-indole-2-carboxylic acid] | ≥ 4.51 |  | 5.00 to 6.00 |  | 
3 | CC(C)OC(=O)c1cc2c(C(F)(F)F)cc(-c3ccccc3)cc2n1O[C@@H]1O[C@H](CO)[C@@H](O)[C@H](O)[C@H]1O [Example 31, isopropyl 1-(β-D-glucopyranosyl)oxy-6-phenyl-4-(trifluoromethyl)-1H-indole-2-carboxylate] |  |  |  | reduce effectively cellular production of lactate | 3.30 to 4.30
4 | COC(=O)c1cc2c(C(F)(F)F)cc(-c3ccccc3OC(F)(F)F)cc2n1O [Example 34, methyl 1-hydroxy-6-(2-(trifluoromethoxy)phenyl)-4-(trifluoromethyl)-1H-indole-2-carboxylate] | ≥ 4.51 | ≥ 4.51 | 4.60 to 5.30 |  | 
5 | O=C(O)c1cc2c(C(F)(F)F)cc(-c3ccccc3OC(F)(F)F)cc2n1O [Example 35, 1-hydroxy-6-(2-(trifluoromethoxy)phenyl)-4-(trifluoromethyl)-1H-indole-2-carboxylic acid] | ≥ 4.51 | ≥ 4.51 | 4.60 to 5.30 |  | 
6 | COC(=O)c1cc2c(C(F)(F)F)cc(-c3cccc(Cl)c3Cl)cc2n1O [Example 36, methyl 6-(2,3-dichlorophenyl)-1-hydroxy-4-(trifluoromethyl)-1H-indole-2-carboxylate] | ≥ 4.51 | ≥ 4.51 | 5.00 to 6.00 |  | 
7 | COC(=O)c1cc2c(C(F)(F)F)cc(-c3cc(Cl)ccc3Cl)cc2n1O [Example 38, methyl 6-(2,5-dichlorophenyl)-1-hydroxy-4-(trifluoromethyl)-1H-indole-2-carboxylate] | ≥ 4.51 | ≥ 4.51 | 4.60 to 5.30 |  | 
8 | COC(=O)c1cc2c(C(F)(F)F)cc(-c3ccccc3)cc2n1O[C@@H]1O[C@H](CO)[C@H](O)[C@@H](O)[C@H]1O [Example 40, methyl 1-(β-d-gulopyranosyl)oxy-6-phenyl-4-(trifluoromethyl)-1H-indole-2-carboxylate] |  |  |  | reduce effectively cellular production of lactate | 
9 | COC(=O)c1cc2c(C(F)(F)F)cc(-c3ccccc3)cc2n1O[C@H]1O[C@H](CO)[C@@H](O)[C@H](O)[C@@H]1O [Example 41, methyl 1-(α-d-mannopyranosyl)oxy-6-phenyl-4-(trifluoromethyl)-1H-indole-2-carboxylate] |  |  |  | reduce effectively cellular production of lactate | 
10 | COC(=O)c1cc2c(C(F)(F)F)cc(-c3cc(Cl)cc(Cl)c3)cc2n1O [Example 42, methyl 6-(3,5-dichlorophenyl)-1-hydroxy-4-(trifluoromethyl)-1H-indole-2-carboxylate] | ≥ 4.51 | ≥ 4.51 | 5.00 to 6.00 |  | 
11 | O=C(O)c1cc2c(C(F)(F)F)cc(-c3cc(Cl)cc(Cl)c3)cc2n1O [Example 43, 6-(3,5-dichlorophenyl)-1-hydroxy-4-(trifluoromethyl)-1H-indole-2-carboxylic acid] | ≥ 4.51 |  | 5.00 to 6.00 |  | 
12 | O=C(OCc1ccccc1)c1cc2c(C(F)(F)F)cc(-c3ccccc3)cc2n1O [Example 48, benzyl 1-hydroxy-6-phenyl-4-(trifluoromethyl)-1H-indole-2-carboxylate] | ≥ 4.51 | ≥ 4.51 | 5.30 to 6.30 |  | 
13 | COC(=O)c1cc2c(F)cc(-c3ccc(Cl)cc3Cl)cc2n1O [Example 53, methyl 6-(2,4-dichlorophenyl)-4-fluoro-1-hydroxy-1H-indole-2-carboxylate] | ≥ 4.51 | ≥ 4.51 | 4.60 to 5.30 |  | 
